Assay results: patent publication US11692004B2, “Substituted pyrazole compound, preparation method therefor, pharmaceutical composition and medical use thereof” (JIANGSU VANGUARD PHARMACEUTICAL CO., LTD., priority 2018, dated 2023)
Converted amounts (≈) assume the structure as drawn.

What was measured:
[1] = Solubility test in distilled water; type: physicochemical; conditions: thermodynamic from solid, 25° C.
Procedure: Test method: the dry compound was slowly dissolved into about 0.5 ml distilled water in a 5 ml EP tube until saturation (turbid after ultra-sonic vibration at 25° C.). The solution was filtered and moved to another clean 5 ml EP tube (pre-weighed) and the tube was weighed again to calculate the solution weight. The solution was freeze dried. The remaining solute was weighed to calculate the solvent weight, and then the compound solubility in water was determined.

Cytotoxic test (MTT) = type: cell-based; conditions: rat, PC12 cells, 48 h incubation
Procedure: (§1) After resuscitating, the PC12 cells were cultured in RPMI-1640 containing 10% horse serum and 5% Fetus Bovine Serum (FBS) under 5% CO2 at 37° C. for two weeks. The medium was changed every other day. The compounds were diluted into solutions of 12.5, 25, 50, 100, 200, 300 μM with culture medium (except examples 33-45 with additional solutions of 400 μM and 500 μM). The PC12 cells were seeded into a 96-well plate at a density of 1.2×10^4 cells/well and cultured in a 37° C., 5% CO2 incubator for 24 hours. Remove the medium, the cells were added with the compound solutions of different concentrations as test solutions for another 48 h incubation in a 37° C., 5% CO2 incubator.
(§2) After the incubation, the wells were added with 20 μL 5 mg/mL MTT and incubated for 4 hours at 37° C. Carefully removed the medium and added 150 μL DMSO. The plates were placed on an enzyme-labeled instrument and vibrated for 5 min. The absorbance Atest solution were obtained at 490 nm with the Ablank of the well without cells and the Acontrol of the well with untreated cells. The survival rates of the cells in every well were calculated by the formula as Survival rate (%)=(Atest solution−Ablank)/(Acontrol−Ablank)*100%

[2] = tested on: MCAO model (middle cerebral artery ischemia-reperfusion); assay: In vivo drug efficacy test of MCAO model; conditions: SD rats, MCAO 2 h then reperfusion, tail vein infusion 30 min; for Cerebral infarction area (%): TTC staining, infarct area to whole brain area; for Improvements of nerve function (%): score at 24 h versus model control
PC12 cells = assay: In-vitro neuroprotection-I (H2O2 injury, MTT); type: cell-based; conditions: Rattus norvegicus, PC-12, 48 h compound, then 200 μM H2O2 24 h, MTT survival rate
Procedure: All samples were made into 60 mM stock solution by DMSO, which were 200 times diluted to 300 μM by medium. And the final concentration was further diluted into different concentrations by media.
Control: Normal cell-plating and same cell medium as other group. 24 hours later, the medium was discarded. Incubate the cell in new media for 24 hours. No compound and hydrogen peroxide treatment. Other steps were the same as the sample test as mentioned below did.
Blank: no cell plating, cell medium, and other steps were the same as the sample test as mentioned below did.
as §1, with “(except that” for “(except”, “The PC 12” for “The PC12”, “of 8×10^3” for “of 1.2×10^4”, “hours. Removed” for “hours. Remove”, “incubator. After the incubation, apart from the blank and control groups, the wells (including 0 μM drug group) were added to the medium-prepared 200 μM H2O2, and continued for another 24 h incubation in a 37° C., 5% CO2 incubator.” for “incubator.”
as §2, with “rate” for “rates”, “well” for “well were calculated”, “survival” for “as Survival”, “solution−Ablank)/(Acontrol−Ablank)*100%.” for “solution−Ablank)/(Acontrol−Ablank)*100%”

[3] = tested on: B6SJL-Tg (SOD1*G93A) mice; assay: In vivo efficacy test of ALS model; parameters: key to Rotarod Time / PaGE: “+” indicates a significant difference compared with the solvent group, p < 0.05; conditions: for Plasma SOD concentration on day 28th(U/mL): ELISA; for PaGE / Rotarod Time: versus solvent group; for Fall latency in rota-rod test and PaGE test: 28-day drug intervention
Procedure: B6SJL-Tg (SOD1*G93A) mice were intraperitoneally administered single-doses once a day for 4 consecutive weeks. The weight of the mice was determined before and after the administration every week. The motor function of the mice was determined by rota-rod and PaGE tests with the time points before and after 4-week administration. The mice plasma was collected and detected for SOD levels through ELISA. The Index Evaluation described below was used to evaluate the efficacy of the compounds of the examples in ALS model and to what extent the compounds of the examples improve the survival period and motor activity.
The animals were delivered to the SPF animal room and raised for more than one week. Five days before the test, the mice were accustomed to a round of tests per day. The mice were randomly divided into groups according to their body weights, 8 mice for each group. Among them, the solvent group was given with the same volume of solvent (physiological saline) every day.
The mice were administered with a volume of 10 ml/kg.
i.p once a day for 4 weeks.
Index evaluation time started from the beginning of the experiment to the death of the animals.
1) ALS onset time: For 2 consecutive observation days, the mice appeared limb, tremor and/or limb weakness at tail suspension were determined as the ALS onset. The determination of limb weakness: the mice were placed on the rota-rod device with a diameter of 3.5 cm. The speed is set to 15 rpm to record the longest fall latency divided by 420 s. The mice of less 420 s were determined as limb weakness.
2) Rota-rod Test: The mice were placed on the rota-rod device with a diameter of 3.5 cm. The speed is set to 12 rpm to record the longest fall latency divided by 180 s. The latency of more than 180 s was recorded as 180 s, and actual time was recorded when less than 180 s.
3) Paw Grip Endurance (PaGE) Test: The mice were placed on the traditional wire grid. The grid was gently shaken to cause the mice to tighten its grip on the wires then inverted, and time recording commenced. The time was recorded until the mouse lost its grip in hind limbs divided by 90 s. The time more than 90 s was recorded as 90 s, while the time less than 90 s was recorded by its actual time. The test was completed in triplicate with the highest score used for analysis.
5) Plasma SOD concentration: The blood was collected and mixed with EP tube containing heparin before and after administration at the 4th week, and then centrifuged at 1000 g for 10 min. The plasma was collected and stored in aliquots at −70° C. ELISA kit was used to detect plasma SOD levels.

[4] = Stability studies (high humidity, illumination, high temperature, seven days); type: physicochemical; conditions: 25° C. ± 2° C., 60% ± 5 RH, 4500 ± 500 LX
Procedure: The stability of samples from some embodiments were examined under high humidity (25° C.±2° C., 90%±5RH), illumination (25° C.±2° C., 60%±5RH, 4500±500LX), high temperature (60° C.±2° C., 60%±5RH), which were stored in the stability incubator for seven days, for the changes of related substances and contents, as shown in Table 2.

[5] = 86 μmol/kg i.p. once a day for 4 weeks

solubility [1]	SMILES	IC50 at 48 h (Cytotoxic test (MTT))	Cerebral infarction area (%) [2]	Improvements of nerve function (%) [2]	EC50 (PC12 cells)	Onset time(d) [3, 5]	Survival time [3, 5]	Plasma SOD concentration on day 28th(U/mL) [3, 5]	PaGE [3, 5]	Rotarod Time [3, 5]	Fall latency in rota-rod test and PaGE test [3]	Content Drop, Illumination [4]	Stability, Illumination: changes of related substances and contents [4]	Onset time [3, 5]
3800 µg/mL (≈ 12.4 mM)	Cc1cc(OC2OC[C@@H](O)[C@H](O)[C@H]2O)n(-c2ccccc2)n1 (stereo partly drawn) [Compound 38, 1-phenyl-3-methyl-5-O-D-xylopyranoside-pyrazole]	> 500 µM	17.8%	17.0%	–	–	–	–	–	–	–	–	–	–
6500 µg/mL (≈ 17.2 mM)	CC(=O)N[C@H]1C(Oc2cc(C)nn2-c2ccccc2)O[C@H](CO)[C@@H](O)[C@@H]1O (stereo partly shown) [Compound 37]	> 500 µM	17.6%	17.5%	90 µM	–	–	–	–	–	–	–	–	–
18000 µg/mL (≈ 53.5 mM)	Cc1cc(OC2O[C@H](CO)[C@H](O)[C@H](O)[C@H]2O)n(-c2ccccc2)n1 (stereo partly drawn) [Compound 35, 1-phenyl-3-methyl-5-O-D-galactoside-pyrazole]	> 300 µM	15.8%	22.2%	87.9 µM	–	–	–	–	–	–	–	–	–
3000 µg/mL (≈ 10.3 mM)	Cc1cc(OC2C[C@H](O)[C@@H](CO)O2)n(-c2ccccc2)n1 (stereo partly drawn) [Compound 40, 1-phenyl-3-methyl-5-O-D-(2-deoxy)riboside-pyrazole]	> 500 µM	18.5%	16.8%	54.7 µM	–	–	–	–	–	–	–	–	–
12300 µg/mL (≈ 36.6 mM)	Cc1cc(OC2O[C@H](CO)[C@@H](O)[C@H](O)[C@@H]2O)n(-c2ccccc2)n1 (stereo partly drawn) [Compound 34, 1-phenyl-3-methyl-5-O-D-mannoside-pyrazole]	> 300 µM	14.5%	21.1%	120 µM	–	–	–	–	–	–	–	–	–
5100 µg/mL (≈ 16.6 mM)	Cc1cc(OC2O[C@H](CO)[C@@H](O)[C@H]2O)n(-c2ccccc2)n1 (stereo partly drawn) [Compound 39, 1-phenyl-3-methyl-5-O-D-riboside-pyrazole]	> 500 µM	18.0%	16.9%	55 µM	–	–	–	–	–	–	–	–	–
–	Cc1cc(OCOC(=O)c2cc(N(C)C)ccc2O)n(-c2ccccc2)n1 [Compound 24, (3-methyl-1-phenylpyrazole-5-)oxymethyl-(2-hydroxy-5-N,N-dimethyl)benzoate]	272 µM	–	–	44.7 µM	118.29 ± 6.32* d	147.71 ± 8.94 days	150.55 ± 11.88* U/mL	+	+	better than the marketed drug edaravone	–	–	–
4200 µg/mL (≈ 13.1 mM)	Cc1cc(OC2C[C@@H](O)[C@H](O)[C@@H](CO)O2)n(-c2ccccc2)n1 (stereo partly drawn) [Compound 36, 1-phenyl-3-methyl-5-O-D-(2-deoxy)glucoside-pyrazole]	> 300 µM	14.1%	24.1%	79.6 µM	–	–	–	–	–	–	–	–	–

SMILES	solubility [1]	IC50 at 48 h (Cytotoxic test (MTT))	Cerebral infarction area (%) [2]	Improvements of nerve function (%) [2]	EC50 (PC12 cells)	Onset time(d) [3, 5]	Survival time [3, 5]	Plasma SOD concentration on day 28th(U/mL) [3, 5]	PaGE [3, 5]	Rotarod Time [3, 5]	Fall latency in rota-rod test and PaGE test [3]	Content Drop, Illumination [4]	Stability, Illumination: changes of related substances and contents [4]	Onset time [3, 5]
Cc1cc(OC2O[C@H](CO)[C@@H](O)[C@H](O)[C@H]2O)n(-c2ccccc2)n1 (stereo partly drawn) [Compound 33, 1-phenyl-3-methyl-5-O-D-glucoside-pyrazole]	10100 µg/mL (≈ 30 mM)	> 300 µM	14.0%	24.0%	112 µM	118.25 ± 5.87* d	149.88 ± 8.37 days	155.18 ± 15.37* U/mL	+	+	better than the marketed drug edaravone	–	–	–
CC1=NN(c2ccccc2)C(=O)C1 [Edaravone, edaravone, reference compound]	< 1000 µg/mL	–	20.1%	15.7%	171 µM	–	147.00 ± 8.94 days	153.88 ± 9.91* U/mL	+	+	–	4%	dropped significantly	116.14 ± 7.82 days
